Laboratory results taken from US7981914B2, “Tetrazole-substituted aryl amide derivatives and uses thereof” (Roche Palo Alto LLC, priority 2007, dated 2011).

Molecular target: T1, human nicotinic alpha7 WT receptor (Homo sapiens, UniProt P36544)
T1 construct: expressed in transfected cells; host or cells: GH4C1 (rat pituitary-derived cell line), RPA clone #34.7
Assay: Nicotinic alpha 7 Modulation Assay (FLIPR)
Format: cell-based
Details: GH4C1 cells stably expressing human nicotinic alpha7 WT receptor, ACh 30 μM, positive control 1 μM PNU-120596
Protocol: Nicotinic alpha 7 Modulation Assay
Cell Culture Growth Media: F10 medium (Invitrogen), 2.5% Fetal Bovine Serum (FBS, Summit Biotechnology); 15% heat inactivated donor Horse Serum (Invitrogen), 250 μg/ml Hygromycin B (Invitrogen); and 100 nM Methyllicaconite (MLA, Sigma) are added to each new culture by 50-fold dilution of stock solution prepared in H2O at 5 μM.
GH4C1 cells (rat pituitary-derived cell line) stably expressing human nicotinic alpha7 WT receptor (RPA clone #34.7) are cultivated in cell culture growth media (described above) at 37 C in a humidified atmosphere containing 4% CO2. […]
The alpha 7 nAChR assay is a cell-based functional readout designed to determine the effect of test compounds to either directly activate nicotinic receptor channels and/or to modulate activation by the native agonist acetylcholine (ACh, Sigma). […]
Assay of test compound effect on activation of the alpha7 nicotinic receptor channel is done by measurement of cytosolic [Ca^2+] elevation as reported by increased FLUO-3 fluorescence using a two addition experimental design and FLIPR™ (Molecular Devices). Following a 30 second baseline recording, test compounds are added online (dilution scheme below) and cell response is recorded for an additional 5 minutes. After a second addition of ACh (30 μM, FAC), plates are read for an additional 4 minutes. […]

T1 sequence (P36544 23-502): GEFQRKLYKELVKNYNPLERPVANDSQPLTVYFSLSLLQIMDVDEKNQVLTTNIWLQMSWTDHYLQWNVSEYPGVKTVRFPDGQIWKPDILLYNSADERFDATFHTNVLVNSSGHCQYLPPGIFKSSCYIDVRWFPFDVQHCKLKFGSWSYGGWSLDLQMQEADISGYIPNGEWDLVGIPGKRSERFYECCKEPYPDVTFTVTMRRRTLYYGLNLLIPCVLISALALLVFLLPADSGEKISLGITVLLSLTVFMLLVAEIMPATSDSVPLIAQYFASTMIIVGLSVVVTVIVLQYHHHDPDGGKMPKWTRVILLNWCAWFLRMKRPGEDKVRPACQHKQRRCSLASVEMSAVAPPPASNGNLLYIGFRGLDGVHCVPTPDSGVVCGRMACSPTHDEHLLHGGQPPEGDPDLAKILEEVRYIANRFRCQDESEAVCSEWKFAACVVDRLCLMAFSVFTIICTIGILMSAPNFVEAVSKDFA

positive allosteric modulation: 467.65
Compound: COc1ccccc1-c1cc(C(=O)NCCc2ccc(S(N)(=O)=O)cc2)cc(-n2cnnn2)c1 [Compound 4, 2′-Methoxy-5-tetrazol-1-yl-biphenyl-3-carboxylic acid [2-(4-sulfamoyl-phenyl)-ethyl]-amide]
